According to the supplement of paper PMC8612539:
≈ marks a conversion by molar mass, not a printed value.

Key:
Pasteurella multocida = test: minimum inhibitory concentration (MIC)
Method: (§1)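 Broth microdilution MIC (Sensititre BOPO7F bovine plate, CLSI methods) of 19 antimicrobials against field isolates of P. multocida, M. haemolytica, H. somni (deep nasopharyngeal swabs) and E. coli, Enterococcus spp. (rectal swabs) from weaned dairy heifers. Incubation 16-24 h at 35 C. MIC is the lowest concentration preventing visible growth. Values with <= or > lie at the tested range limits. Trimethoprim-sulfamethoxazole is given as the trimethoprim component of a 1:19 mixture.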

Enterococcus spp. = test: minimum inhibitory concentration (MIC)
Method: as §1

CS(=O)(=O)c1ccc([C@@H](O)[C@@H](CF)NC(=O)C(Cl)Cl)cc1 [Florfenicol]
minimum inhibitory concentration [µg/mL]
Conditions | Enterococcus spp. | Pasteurella multocida
isolate (source animal id): 2 | 2 (≈ 5.58 µM) | –
isolate (source animal id): 10 | – | 8 (≈ 22.3 µM)
isolate (source animal id): 11 | – | 8 (≈ 22.3 µM)
isolate (source animal id): 12 | – | 8 (≈ 22.3 µM)
isolate (source animal id): 19 | – | 8 (≈ 22.3 µM)
isolate (source animal id): 23 | – | 8 (≈ 22.3 µM)
isolate (source animal id): 26 | – | 8 (≈ 22.3 µM)
isolate (source animal id): 35 | > 8 | –
isolate (source animal id): 42 | 2 (≈ 5.58 µM) | –
isolate (source animal id): 44 | 2 (≈ 5.58 µM) | –
isolate (source animal id): 79 | 4 (≈ 11.2 µM) | –
isolate (source animal id): 88 | 2 (≈ 5.58 µM) | –
isolate (source animal id): 91 | 2 (≈ 5.58 µM) | –
isolate (source animal id): 92 | 2 (≈ 5.58 µM) | –
isolate (source animal id): 98 | – | 8 (≈ 22.3 µM)
isolate (source animal id): 104 | – | 0.5 (≈ 1.4 µM)
isolate (source animal id): 111 | 2 (≈ 5.58 µM) | –
isolate (source animal id): 115 | – | 8 (≈ 22.3 µM)
isolate (source animal id): 117 | – | 0.5 (≈ 1.4 µM)
isolate (source animal id): 118 | – | 8 (≈ 22.3 µM)
isolate (source animal id): 121 | – | 8 (≈ 22.3 µM)
isolate (source animal id): 122 | > 8 | –
isolate (source animal id): 123 | 2 (≈ 5.58 µM) | –
isolate (source animal id): 124 | – | 1 (≈ 2.79 µM)
isolate (source animal id): 125 | – | 8 (≈ 22.3 µM)
isolate (source animal id): 128 | – | 8 (≈ 22.3 µM)
isolate (source animal id): 131 | – | > 8
isolate (source animal id): 133 | 2 (≈ 5.58 µM) | –
isolate (source animal id): 135 | – | > 8
isolate (source animal id): 136 | – | 8 (≈ 22.3 µM)
isolate (source animal id): 140 | – | 0.5 (≈ 1.4 µM)
isolate (source animal id): 144 | – | 8 (≈ 22.3 µM)
isolate (source animal id): 146 | – | 8 (≈ 22.3 µM)
isolate (source animal id): 150 | – | 8 (≈ 22.3 µM)
isolate (source animal id): 151 | – | 8 (≈ 22.3 µM)
isolate (source animal id): 153 | – | 8 (≈ 22.3 µM)
isolate (source animal id): 155 | – | 0.5 (≈ 1.4 µM)
isolate (source animal id): 157 | – | 8 (≈ 22.3 µM)
isolate (source animal id): 158 | 2 (≈ 5.58 µM) | –
isolate (source animal id): 160 | – | 8 (≈ 22.3 µM)
isolate (source animal id): 164 | – | 8 (≈ 22.3 µM)
isolate (source animal id): 165 | – | 8 (≈ 22.3 µM)
isolate (source animal id): 167 | – | 0.5 (≈ 1.4 µM)
isolate (source animal id): 168 | 2 (≈ 5.58 µM) | 1 (≈ 2.79 µM)
isolate (source animal id): 169 | 2 (≈ 5.58 µM) | 0.5 (≈ 1.4 µM)
isolate (source animal id): 170 | – | > 8
isolate (source animal id): 171 | 4 (≈ 11.2 µM) | 0.5 (≈ 1.4 µM)
isolate (source animal id): 172 | – | 0.5 (≈ 1.4 µM)
isolate (source animal id): 173 | – | 1 (≈ 2.79 µM)
isolate (source animal id): 174 | – | 0.5 (≈ 1.4 µM)
isolate (source animal id): 175 | 4 (≈ 11.2 µM) | 0.5 (≈ 1.4 µM)
isolate (source animal id): 176 | – | 0.5 (≈ 1.4 µM)
isolate (source animal id): 177 | 4 (≈ 11.2 µM) | 0.5 (≈ 1.4 µM)
isolate (source animal id): 178 | – | 0.5 (≈ 1.4 µM)
isolate (source animal id): 179 | – | 0.5 (≈ 1.4 µM)
isolate (source animal id): 181 | 2 (≈ 5.58 µM) | –
isolate (source animal id): 182 | 2 (≈ 5.58 µM) | 0.5 (≈ 1.4 µM)
isolate (source animal id): 183 | 2 (≈ 5.58 µM) | –
isolate (source animal id): 187 | 2 (≈ 5.58 µM) | –
isolate (source animal id): 190 | 2 (≈ 5.58 µM) | –
isolate (source animal id): 192 | – | 0.5 (≈ 1.4 µM)
isolate (source animal id): 193 | – | 0.5 (≈ 1.4 µM)
isolate (source animal id): 194 | 2 (≈ 5.58 µM) | –
isolate (source animal id): 195 | 2 (≈ 5.58 µM) | 0.5 (≈ 1.4 µM)
isolate (source animal id): 196 | – | 0.5 (≈ 1.4 µM)
isolate (source animal id): 197 | 2 (≈ 5.58 µM) | 0.5 (≈ 1.4 µM)
isolate (source animal id): 198 | – | 1 (≈ 2.79 µM)
isolate (source animal id): 199 | – | 0.5 (≈ 1.4 µM)
isolate (source animal id): 200 | – | 0.5 (≈ 1.4 µM)
isolate (source animal id): 201 | – | 0.5 (≈ 1.4 µM)
isolate (source animal id): 203 | – | 0.5 (≈ 1.4 µM)
isolate (source animal id): 204 | – | 0.5 (≈ 1.4 µM)
isolate (source animal id): 205 | – | 1 (≈ 2.79 µM)
isolate (source animal id): 206 | – | 0.5 (≈ 1.4 µM)
isolate (source animal id): 207 | – | 0.5 (≈ 1.4 µM)
isolate (source animal id): 208 | – | 0.5 (≈ 1.4 µM)
isolate (source animal id): 209 | – | 0.5 (≈ 1.4 µM)
isolate (source animal id): 210 | – | 1 (≈ 2.79 µM)
isolate (source animal id): 211 | 2 (≈ 5.58 µM) | –
isolate (source animal id): 213 | – | 0.5 (≈ 1.4 µM)
isolate (source animal id): 214 | 2 (≈ 5.58 µM) | –
isolate (source animal id): 216 | – | 0.5 (≈ 1.4 µM)
isolate (source animal id): 222 | 2 (≈ 5.58 µM) | –
isolate (source animal id): 223 | 2 (≈ 5.58 µM) | 1 (≈ 2.79 µM)
isolate (source animal id): 227 | – | 0.5 (≈ 1.4 µM)
isolate (source animal id): 228 | 2 (≈ 5.58 µM) | –
isolate (source animal id): 229 | – | 8 (≈ 22.3 µM)
isolate (source animal id): 230 | 2 (≈ 5.58 µM) | –
isolate (source animal id): 233 | – | 0.5 (≈ 1.4 µM)
isolate (source animal id): 234 | – | 8 (≈ 22.3 µM)
isolate (source animal id): 235 | 2 (≈ 5.58 µM) | –
isolate (source animal id): 236 | 2 (≈ 5.58 µM) | –
isolate (source animal id): 237 | – | 8 (≈ 22.3 µM)
isolate (source animal id): 239 | 2 (≈ 5.58 µM) | –
isolate (source animal id): 241 | 2 (≈ 5.58 µM) | 8 (≈ 22.3 µM)
isolate (source animal id): 244 | 2 (≈ 5.58 µM) | –
isolate (source animal id): 245 | – | 0.5 (≈ 1.4 µM)
isolate (source animal id): 246 | 2 (≈ 5.58 µM) | –
isolate (source animal id): 247 | 4 (≈ 11.2 µM) | 0.5 (≈ 1.4 µM)
isolate (source animal id): 250 | 2 (≈ 5.58 µM) | 8 (≈ 22.3 µM)
isolate (source animal id): 252 | 4 (≈ 11.2 µM) | –
isolate (source animal id): 254 | – | > 8
isolate (source animal id): 255 | – | 4 (≈ 11.2 µM)
isolate (source animal id): 258 | – | 0.5 (≈ 1.4 µM)
isolate (source animal id): 261 | – | 8 (≈ 22.3 µM)
isolate (source animal id): 262 | – | > 8
isolate (source animal id): 268 | 2 (≈ 5.58 µM) | –
isolate (source animal id): 269 | – | 0.5 (≈ 1.4 µM)
isolate (source animal id): 270 | – | 8 (≈ 22.3 µM)
isolate (source animal id): 274 | – | > 8
isolate (source animal id): 275 | – | > 8
isolate (source animal id): 276 | – | 0.5 (≈ 1.4 µM)
isolate (source animal id): 277 | – | 0.5 (≈ 1.4 µM)
isolate (source animal id): 278 | – | > 8
isolate (source animal id): 279 | – | 1 (≈ 2.79 µM)
isolate (source animal id): 280 | – | 0.5 (≈ 1.4 µM)
isolate (source animal id): 282 | 1 (≈ 2.79 µM) | –
isolate (source animal id): 284 | – | 8 (≈ 22.3 µM)
isolate (source animal id): 285 | 4 (≈ 11.2 µM) | > 8
isolate (source animal id): 287 | – | > 8
isolate (source animal id): 289 | 2 (≈ 5.58 µM) | –
isolate (source animal id): 290 | 2 (≈ 5.58 µM) | > 8
isolate (source animal id): 294 | – | > 8
isolate (source animal id): 295 | – | 8 (≈ 22.3 µM)
isolate (source animal id): 296 | 2 (≈ 5.58 µM) | 0.5 (≈ 1.4 µM)
isolate (source animal id): 298 | 2 (≈ 5.58 µM) | –
isolate (source animal id): 301 | 2 (≈ 5.58 µM) | –
isolate (source animal id): 307 | – | > 8
isolate (source animal id): 310 | 4 (≈ 11.2 µM) | > 8
isolate (source animal id): 311 | – | 8 (≈ 22.3 µM)
isolate (source animal id): 312 | – | 8 (≈ 22.3 µM)
isolate (source animal id): 313 | – | > 8
isolate (source animal id): 315 | – | > 8
isolate (source animal id): 316 | – | > 8
isolate (source animal id): 320 | 1 (≈ 2.79 µM) | –
isolate (source animal id): 331 | 2 (≈ 5.58 µM) | –
isolate (source animal id): 333 | 2 (≈ 5.58 µM) | –
isolate (source animal id): 341 | > 8 | –
